In article PMC12370193, “An L-fucose-responsive transcription factor cross-regulates the expression of a diverse array of carbohydrate-active enzymes in Trichoderma reesei” (PLOS Genetics, 2025):

Molecular target: T1, FDH1 (Trichoderma reesei, UniProt G0RGU7)
T1 construct: gene TRIREDRAFT_60517; full-length re-annotated 302-aa protein (database gene model may differ; S1 Data); codon-optimized; pET-32a(+), E. coli BL21(DE3); N-terminal His6 tag
Assay: NADH formation at […] nm, initial rates, Hill equation fit
Assay type: biochemical
Settings: NAD+ co-substrate (0.5 mM in standard assay), 50 mM Tris-HCl pH 9.0, 30 °C

T1 sequence (G0RGU7 entry or part of it): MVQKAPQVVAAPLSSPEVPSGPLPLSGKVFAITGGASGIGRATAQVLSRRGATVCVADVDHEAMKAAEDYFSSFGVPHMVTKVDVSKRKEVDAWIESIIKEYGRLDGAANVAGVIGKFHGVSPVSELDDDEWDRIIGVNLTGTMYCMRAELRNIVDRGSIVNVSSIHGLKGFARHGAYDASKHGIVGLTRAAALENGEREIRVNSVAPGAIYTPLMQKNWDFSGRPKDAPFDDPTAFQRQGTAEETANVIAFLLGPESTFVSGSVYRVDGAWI

Q: For C[C@@H]1OC(O)[C@@H](O)[C@H](O)[C@@H]1O (stereo partly drawn) [L-fucose, 6-deoxy-L-galactose], which Km is on record?
A: 546 µM
